# Results taken from patent publication US7101863B2, “Pharmaceutical compositions with wound healing or anti-complementary activity comprising a dextran derivative” (Biodex, priority 2000, dated 2006).
# Legend:
# gastric mucosa = assay: In-vivo gastric healing, macroscopic impairment of the gastric mucosa; set-up: species or system Sprague-Dawley rats; key: 0: Normal mucosa.; +: Small superficial hemorrhagic striae.; ++: Short and broad superficial hemorrhagic striae.; +++: Long and broad superficial hemorrhagic striae.; ++++: Perforations; conditions: oral, dextran derivative and dextran T40 50 μg/kg, prostaglandin E2 10 μg/kg
# Protocol: The animals employed are 12-week-old male Sprague-Dawley rats weighing from 200 to 250 g. Three batches of animals are used, with each consisting of 4 animals:
# the first batch is treated with a dextran derivative of the general formula DMCaBbSuc in which a=0.75, b=0.25 and c=0.15, at the rate of 50 μg/kg,
# the second batch serves as the control, with the animals being treated with a native dextran T40 (Pharmacia Fine Chemical; weight average molecular mass Mw: 37 500 g/mol; Mw/Mn: 1.7, with Mn representing the number average mass), at the rate of 50 μg/kg,
# This batch therefore corresponds to a positive control.
# The dextran derivative, the native dextran and the prostaglandin E2 are dissolved in physiological saline and administered orally to the animals.
# The animals are sacrificed at different stages of healing, namely on D2, D4, D7 and D14, with the healing process being considered on days from the date on which the gastric irritation is induced. The gastric mucosa is recovered with a view to carrying out two studies:
# quantification of the impairment of the gastric mucosa,
# Table V represents a compilation of the results of the macroscopic study of the inflammatory reaction in the gastric mucosa, with the study being effected in accordance with the following scale: […]
# right eye = assay: In-vivo ocular healing after sodium hydroxide burn, histological studies; set-up: species or system New Zealand white rabbits; conditions: 100 μl three times daily; FGF-2 0.1 ng and/or dextran derivative 50 μg/ml
# Protocol: 20 New Zealand white rabbits (10 males and 10 females) are used, with the rabbits being 1 year old and weighing from 2.5 to 3 kg; a 5.5 mm filter soaked in a 1N solution of sodium hydroxide was placed for 60 seconds on the right eye of these rabbits, which were then divided up into 4 groups of 5 animals each:
# the first group is treated three times daily with 100 μl of a solution containing 0.1 ng of FGF-2 (Fibroblast Growth Factor-2);
# the second group is treated three times daily with 100 μl of an isotonic solution containing 50 μg of a dextran derivative/ml of the general formula DMCaBbSuc in which a=0.75, b=0.31 and c=0.34;
# the third group is treated three times daily with 100 μl of a solution containing 0.1 ng of FGF-2 and 50 μg of the above-mentioned dextran derivative/ml;
# the fourth group (control group) is treated three times daily with 100 μl of a PBS buffer solution.
# The speed of ocular healing in the four groups of animals is compared by means of histological studies carried out on days D1, D2, D4, D6 and D8.
# complement system = assay: In-vivo anticomplementary action, hemolytic CH50 assay on rat serum; set-up: species or system Sprague-Dawley rats; conditions: injection with Sephadex G25 20 μg and 50 μg of test substance
# Description: The anticomplementary action is studied by means of a hemolytic or CH50 assay, in accordance with a protocol in which the serum of the rats, withdrawn at different time intervals, is activated by sheep erythrocytes which are sensitized by rabbit antibodies directed against sheep red blood cells (EA). By definition, one CH50 unit corresponds to the concentration of complement proteins (contained in one milliliter of serum) which is capable of inducing the hemolysis of 50% of 2×10^7 activated EAs in a reaction medium where the volume, the temperature and the reaction time are kept constant. The number of hemolytic sites per cell is calculated.
compound,measurement,setting,value
"CCCCC[C@H](O)/C=C/[C@H]1[C@H](O)CC(=O)[C@@H]1C/C=C\CCCC(=O)O [Prostaglandin E2, prostaglandin E2]",Impairment of the gastric mucosa,gastric mucosa; D2,++
same,Impairment of the gastric mucosa,gastric mucosa; D4,+
same,Impairment of the gastric mucosa,gastric mucosa; D7,+
same,Impairment of the gastric mucosa,gastric mucosa; D14,0
FGF-2: Fibroblast Growth Factor-2,Duration of ocular healing (mean for each group of animals),right eye,5 days
native dextran,Inhibition of the activation of the complement (CH50),complement system,did not have any effect
